Measured values: ChEMBL document CHEMBL1157231, “Antibacterial compounds from Glycyrrhiza uralensis” (2006)

Tested on: Streptococcus mutans
Assay: Antibacterial activity against Streptococcus mutans ATCC 25175 after 16 to 20 hrs by NCCLS method
Type: functional

Row | SMILES | Activity [µg/mL]
1 | COc1cc2occ(-c3ccc(O)cc3)c(=O)c2c(O)c1CC=C(C)C [GANCAONIN G] | 125
2 | CC(C)=CCc1c(O)c(CC=C(C)C)c2occ(-c3ccc(O)cc3)c(=O)c2c1O | 2
3 | COc1cc(O)cc2c1-c1oc3c4c(ccc3c1CO2)OC(C)(C)C=C4 [GLYCYRRHIZOL B] | 32
4 | COc1cc2oc(=O)c3c4ccc(O)cc4oc3c2c(OC)c1CC=C(C)C | 500
5 | COc1c(CC=C(C)C)c(O)cc2c1-c1oc3cc(O)c(CC=C(C)C)cc3c1CO2 [GLYCYRRHIZOL A] | 1
6 | COc1c2c(cc3oc(=O)c4c5ccc(O)cc5oc4c13)OC(C)(C)CC2 [ISOGLYCYROL] | 500
